Measured values published in PMC4406947, “CALM Regulates Clathrin-Coated Vesicle Size and Maturation by Directly Sensing and Driving Membrane Curvature” (Developmental Cell, 2015).

Columns and labels:
CALM ANTH (CALM ANTH-WT) = target: T1, CALM ANTH (CALM ANTH-WT); test: liposome-based SPR (BIAcore […]); assay type: binding, Homo sapiens; conditions: PtdIns4,5P2-containing liposomes, not free lipid; 170 mM salt
T1 construct: gene PICALM; recombinant N-terminal ANTH domain including AH0, first 289 residues; construct details in supplement; clone could be rat Picalm (earlier ANTH constructs of this group)

CALM ANTH(ΔH0) = target: T2, CALM ANTH(ΔH0) (Homo sapiens, UniProt Q13492); test: liposome-based SPR (BIAcore […]); assay type: binding; conditions: PtdIns4,5P2-containing liposomes, not free lipid; 170 mM salt
T2 construct: gene PICALM; recombinant ANTH domain lacking the N-terminal amphipathic helix AH0 (residues 1-18); construct details in supplement; clone could be rat Picalm
T2 sequence (Q13492 19-289): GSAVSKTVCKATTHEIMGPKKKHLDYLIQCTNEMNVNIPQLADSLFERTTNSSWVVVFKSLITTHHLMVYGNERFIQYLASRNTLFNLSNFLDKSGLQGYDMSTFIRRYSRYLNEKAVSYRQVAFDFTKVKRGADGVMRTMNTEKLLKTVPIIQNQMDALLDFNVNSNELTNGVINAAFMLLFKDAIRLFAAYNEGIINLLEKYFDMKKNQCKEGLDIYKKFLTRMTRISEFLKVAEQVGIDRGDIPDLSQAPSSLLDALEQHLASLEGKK

- Kd (CALM ANTH (CALM ANTH-WT)): 1.5 µM
- Kd (CALM ANTH(ΔH0)): 11.5 ± 1.1 µM
Substance: PtdIns4,5P2
